Results published in US10882869B2, “Condensed heterocyclic compounds and pesticides” (NISSAN CHEMICAL CORPORATION, priority 2015, dated 2021).

Experiments:
Format in all cases: in vivo
Spodoptera litura = test: Insecticidal test on Spodoptera litura (cabbage leaves soaked); settings: 144 h, 500 ppm solution, 3rd-instar larvae, 6 days after, 25° C.
Method: (§1) Leaves of cabbage were soaked in the solutions for about 10 seconds. After the soaking, the leaves were dried in air and placed in dishes. In each dish, five 3rd-instar larvae of Spodoptera litura were released, and the dishes were covered with lids and placed in an incubator at 25° C. 6 Days after, dead insects in the dishes were counted, and the mortality was calculated by using the same equation as in Test Example 1. The test was carried out in duplicate.

Plutella xylostella = test: Insecticidal test on Plutella xylostella (cabbage leaves soaked); settings: 144 h, 500 ppm solution, 3rd-instar larvae, 6 days after, 25° C.
Method: as §1, with “Plutella xylostella” for “Spodoptera litura”

Ctenocephalides felis = test: Test on the effect on Ctenocephalides felis (thin film in glass container); settings: 96 h, application dose 10 μg/cm^2, adults, 4 days after release, 25° C.
Method: 350 μl of the solutions were applied to the bottoms and the side walls of glass containers with an inner wall surface area of 35 cm^2, and acetone was volatilized to prepare thin films of the compounds on the inner walls of the glass containers. Since the inner wall surface area of each glass container was 35 cm^2, the application dose was 10 μg/cm^2.
To each glass container, five adults (male and female) of Ctenocephalides felis were released, and the containers were covered with lids and placed in an incubator at 25° C. 4 Days after the release of the fleas, dead fleas were counted, and the mortality was calculated by using the same equation as in Test Example 1.

Compound | mortality at 500 ppm (Spodoptera litura) | mortality at 500 ppm (Plutella xylostella) | mortality at 10 µg/cm2 (Ctenocephalides felis)
CCSc1c(-c2nc3cc(C(F)(F)F)nc(C)c3n2C)nc2ccc(C(F)(F)F)cn12 [1-8-003b, 2-[3-(ethylthio)-6-(trifluoromethyl)imidazo[1,2-a]pyridin-2-yl]-3,4-dimethyl-6-(trifluoromethyl)-3H-imidazo[4,5-c]pyridine] | ≥ 90% | ≥ 90% | 
CCS(=O)(=O)c1c(-c2cn3cnc(C(F)(F)C(F)(F)F)cc3n2)nc2ccc(C(F)(F)F)cn12 [1-3-008a, 2-[3-(ethylsulfonyl)-6-(trifluoromethyl)imidazo[1,2-a]pyridin-2-yl]-7-(perfluoroethyl)imidazo[1,2-c]pyrimidine] | ≥ 90% | ≥ 90% | ≥ 50%
CCSc1c(-c2nc3cc(C(F)(F)F)cnc3n2C)nc2cc(C(F)(F)F)c(Br)cn12 [1-1-023b, 2-[6-bromo-3-(ethylthio)-7-(trifluoromethyl)imidazo[1,2-a]pyridin-2-yl]-3-methyl-6-(trifluoromethyl)-3H-imidazo[4,5-b]pyridine] | ≥ 90% | ≥ 90% | ≥ 50%
CCSc1c(-c2nc3cc(C(F)(F)F)cnc3n2C)nc2c(C(F)(F)F)cc(I)cn12 [1-1-066b, 2-[3-(ethylthio)-6-iodo-8-(trifluoromethyl)imidazo[1,2-a]pyridin-2-yl]-3-methyl-6-(trifluoromethyl)-3H-imidazo[4,5-b]pyridine] |  |  | ≥ 50%
CCSc1c(-c2nc3cc(C(F)(F)F)ncc3n2C)nc2cc(C(F)(F)F)ccn12 [1-8-005b, 2-[3-(ethylthio)-7-(trifluoromethyl)imidazo[1,2-a]pyridin-2-yl]-3-methyl-6-(trifluoromethyl)-3H-imidazo[4,5-c]pyridine] | ≥ 90% |  | 
CCS(=O)(=O)c1c(-c2nc3cc(C(F)(F)F)cnc3n2C)nc2ncc(C(F)(F)F)cn12 [1-1-054a, 2-[3-(ethylsulfonyl)-6-(trifluoromethyl)imidazo[1,2-a]pyrimidin-2-yl]-3-methyl-6-(trifluoromethyl)-3H-imidazo[4,5-b]pyridine] |  | ≥ 90% | 
CCSc1c(-c2nc3cnc(C(F)(F)F)cc3n2C)nc2cc(Cl)ccn12 [1-9-003b, 2-[7-chloro-3-(ethylthio)imidazo[1,2-a]pyridin-2-yl]-1-methyl-6-(trifluoromethyl)-1H-imidazo[4,5-c]pyridine] |  | ≥ 90% | ≥ 50%
CCSc1c(-c2nc3cc(C(F)(F)F)cnc3n2C)nc2sc(C(F)(F)F)cn12 [2-1-001b, 5-(ethylthio)-6-[3-methyl-6-(trifluoromethyl)-3H-imidazo[4,5-b]pyridin-2-yl]-2-(trifluoromethyl)imidazo[2,1-b]thiazole] | ≥ 90% | ≥ 90% | 
CCS(=O)(=O)c1c(-c2nc3cc(C(F)(F)F)cnc3s2)nc2cc(C(F)(F)F)ccn12 [1-13-001a, 2-[3-(ethylsulfonyl)-7-(trifluoromethyl)imidazo[1,2-a]pyridin-2-yl]-6-(trifluoromethyl)thiazolo[5,4-b]pyridine] | ≥ 90% | ≥ 90% | 
CCSc1c(-c2nc3ccc(C(F)(F)F)nc3n2C)nc2cc(C(F)(F)F)ccn12 [1-1-030b, 2-[3-(ethylthio)-7-(trifluoromethyl)imidazo[1,2-a]pyridin-2-yl]-3-methyl-5-(trifluoromethyl)-3H-imidazo[4,5-b]pyridine] | ≥ 90% | ≥ 90% | 
